Test results taken from ChEMBL document CHEMBL1201862, “PubChem BioAssay data set” (2004).
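Briefly, cells in 96-well plates were exposed to five compound concentrations for 48 h, and endpoints were estimated by linear interpolation. GI50 marks 50% less growth.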 Activity calls are given as the source filed them. Cut-off read from the data, not from the text of the source: active = GI50 up to about 1.1 µM and inactive = higher.

How the values were obtained:
Experiment in all cases: NCI tumour cell line growth inhibition, 48 h
[1] = system: SNB-19
[2] = system: MCF7
[3] = system: UACC-62
[4] = system: RXF 393
[5] = system: A498
[6] = system: SK-MEL-28
[7] = system: Malme-3M
[8] = system: NCI-H522
[9] = system: OVCAR-4
[10] = system: HOP-62
[11] = system: MDA-MB-231
[12] = system: RPMI-8226
[13] = system: DU-145
[14] = system: COLO 205
[15] = system: SW-620
[16] = system: A549
[17] = system: CCRF-CEM
[18] = system: KM12
[19] = system: SNB-75

Measured: GI50

N#Cc1c(O)nc2nn3c4ccc5ccccc5c4nnc3c2c1-c1ccc(Cl)cc1
inactive: [1] 3.13 µM | [2] 1.75 µM | [3] 1.49 µM | [4] 2.01 µM | [5] 1.58 µM | [6] 2.24 µM | [7] 1.93 µM | [8] 1.5 µM | [9] 3.58 µM | [10] 3.16 µM | [11] 5.36 µM | [12] 2.9 µM | [13] 1.95 µM | [14] 2.24 µM | [15] 2.03 µM | [16] 4.57 µM | [17] 1.56 µM | [18] 2.8 µM

CC1(C)OC(=O)C2(O1)C(=O)C1CCCCC12 (stereo unspecified)
inactive: [1] 8.39 µM | [2] 5.75 µM | [3] 82.4 µM | [4] 4.89 µM | [5] 4.78 µM | [6] > 100 µM | [7] 67.9 µM | [8] 12 µM | [9] 9.73 µM | [10] 62.8 µM | [11] 3.84 µM | [12] > 100 µM | [13] > 100 µM | [14] 20.1 µM | [15] > 100 µM | [16] 26.9 µM | [17] 8.97 µM | [18] > 100 µM

CCn1nc2c3c(ncn3C(C)(C)O2)c1=O
inactive: [1] > 100 µM | [2] > 100 µM | [3] > 100 µM | [4] > 100 µM | [5] > 100 µM | [6] > 100 µM | [7] > 100 µM | [8] > 100 µM | [9] > 100 µM | [10] > 100 µM | [11] > 100 µM | [12] > 100 µM | [13] > 100 µM | [14] > 100 µM | [15] > 100 µM | [16] > 100 µM | [17] > 100 µM | [18] > 100 µM

CCOC(=O)c1cc2cc3c4c(c2oc1=O)CCCN4CCC3
inactive: [1] 42.6 µM | [2] 23.2 µM | [4] 10.4 µM | [5] 17.6 µM | [6] 43.4 µM | [7] 49.3 µM | [8] 19.4 µM | [9] 34 µM | [10] 26.2 µM | [11] 22.3 µM | [12] 19.3 µM | [13] 31.6 µM | [14] 24.7 µM | [15] 67.9 µM | [16] 21.5 µM | [17] 29.4 µM | [18] 23.8 µM

Cc1c(-c2ccccc2)c(C#N)c2nnc(C(N)=O)c(N)n12
inactive: [1] > 100 µM | [2] > 100 µM | [3] > 100 µM | [4] > 100 µM | [5] > 100 µM | [6] > 100 µM | [7] > 100 µM | [8] > 100 µM | [9] > 100 µM | [10] > 100 µM | [11] > 100 µM | [12] > 100 µM | [13] > 100 µM | [14] > 100 µM | [15] > 100 µM | [16] > 100 µM | [17] > 100 µM | [18] > 100 µM

CCOc1cc(/C=C2/C(C)=NN(c3cccc(Cl)c3)/C2=N/c2nc3ccccc3s2)ccc1O
inactive: [2] 28.5 µM | [19] 34.8 µM | [4] 38.6 µM | [5] 24.2 µM | [6] 34.7 µM | [8] 21.9 µM | [10] 23.2 µM | [11] 24.7 µM | [12] 38.3 µM | [13] 46.1 µM | [15] 34.6 µM | [17] 33.2 µM
